Experimental data as given in patent US7767194B2, “Optical diagnostic and therapeutic agents and compositions” (Mallinckrodt Inc., priority 2000, dated 2010).

Tests used:
[1] = tested on: Rat pancreatic acinar carcinoma expressing the SST-2 receptor (CA20948); assay: Non-invasive in vivo fluorescence imaging of rat pancreatic acinar carcinoma (CA20948)
From the text: (§1) A non-invasive in vivo fluorescence imaging apparatus was employed to assess the efficacy of contrast agents developed for tumor detection in animal models. A LaserMax Inc. laser diode of nominal wavelength 780 nm and nominal power of 40 mW was used. The detector was a Princeton Instruments model RTE/CCD-1317-K/2 CCD camera with a Rodenstock 10 mm F2 lens (stock #542.032.002.20) attached. An 830 nm interference […] (CVI Laser Corp., part # F10-830-4-2) was mounted in front of the CCD input lens such that only emitted fluorescent light from the contrast agent was imaged. Typically, an image of the animal was taken pre-injection of contrast agent. This image was subsequently subtracted (pixel by pixel) from the post injection images. However, the background subtraction was […] done once the animal had been removed from the sample area and returned at a later time for images taken several hours post injection.
DSL 6A tumors were induced in male Lewis rats in the left flank area by the introduction of material from a solid (donor) implant and the tumors were palpable in approximately 14 days. The animals were anesthetized with xylazine; ketamine; acepromazine 1.5:1.5:0.5 at 0.8 mL/kg via intramuscular injection. The area of the tumor (left flank) was shaved to expose tumor and surrounding surface area. A 21 gauge butterfly equipped with a stopcock and two syringes containing heparinized saline was placed into the later tail vein of the rat. Patency of the vein was checked prior to administration of the ICG via the butterfly apparatus. Each animal received […] of a 0.42 mg/mL solution of ICG in water.
The imaging apparatus and the procedure used are described in Example 12. Rat pancreatic acinar carcinoma expressing the SST-2 receptor (CA20948) was induced by solid implant technique in the left flank area, and palpable masses were detected nine days post implant. The images obtained at 2 and 30 minutes post injection are shown in FIG. 7E-F. FIGS. 7E-F are images of a rat with an induced pancreatic acinar carcinoma (CA20948) expressing the SST-2 receptor imaged at two minutes (FIG. 7E) and 30 minutes (FIG. 7F) post injection.
The imaging apparatus and the procedure used are described in Example 12 except that each animal received 500 μl of a 1.0 mg/mL solution of Cytate 1 solution of 25% dimethylsulfoxide in water.
Rat pancreatic acinar carcinoma expressing the SST-2 receptor (CA20948) were induced by solid implant technique in the left flank area, and palpable masses were detected 24 days post implant. Images were obtained at various times post injection.
Cytate 1 was evaluated in the CA20948 Lewis rat model. […] At 27 hours post injection, the animal was again imaged (FIG. 9B).

[2] = tested on: Prostatic carcinoma tumor (Dunning R3327-H); assay: Non-invasive in vivo fluorescence imaging of prostatic carcinoma (R3327-H); parameters: species or system rat
DSL 6A tumors = assay: Non-invasive in vivo fluorescence imaging of pancreatic ductal adenocarcinoma (DSL 6A); parameters: species or system rat
From the text: as §1
DSL 6A tumors were induced in male Lewis rats in the left flank area by the introduction of material from a solid (donor) implant and the tumors were palpable in approximately 14 days. The animals were anesthetized with xylazine; ketamine; acepromazine 1.5:1.5:0.5 at 0.8 mL/kg via intramuscular injection. The area of the tumor (left flank) was shaved to expose tumor and surrounding surface area. […]

[3] = Monitoring of the blood clearance profile of peptide-dye conjugates; format: in vivo; details: rat ear, bolus injection in lateral tail vein, 830 nm after excitation at 780 nm
From the text: A laser of appropriate wavelength for excitation of the dye chromophore was directed into one end of a fiber optic bundle and the other end was positioned a few millimeters from the ear of a rat. A second fiber optic bundle was also positioned near the same ear to detect the emitted fluorescent light and the other end was directed into the optics and electronics for data collection. An interference filter (IF) in the collection optics train was used to select emitted fluorescent light of the appropriate wavelength for the dye chromophore.
After the animals had achieved the desired plane of anesthesia, a 21 gauge butterfly with 12″ tubing was placed in the lateral tail vein of each animal and flushed with heparinized saline. The animals were placed onto a heating pad and kept warm throughout the entire study. The lobe of the left ear was affixed to a glass microscope slide to reduce movement and vibration.
Incident laser light delivered from the fiber optic was centered on the affixed ear. Data acquisition was then initiated, and a background reading of fluorescence was obtained prior to administration of the test agent. […] This procedure was repeated with several dye-peptide conjugates in normal and tumor bearing rats. […] The data were analyzed using a standard sigma plot software program for a one compartment model.

[4] = Imaging of individual organs removed from CA20948 tumor-bearing rat; format: in vivo
Method: Individual organs were removed at about 24 hours post Cytate 1 administration and imaged.

[5] = CA20948 tumor, 45 minutes post injection
[6] = organ removed about 24 hours post administration
[7] = tissue removed about 24 hours post administration

| Structure (SMILES) | perfusion of the agent into the tumor ([1]; CA20948 (pancreatic) tumor line, CCD camera) | dye intensity in the tumor ([1]; CA20948 tumor, 30 minutes post-ICG injection (vs two minutes)) | uptake (dye fluorescence) in tumor at 45 minutes [1, 5] | perfusion of the agent into the tumor ([2]; Dunning R3327H (prostate) tumor line, CCD camera) | dye intensity in the tumor ([2]; R3327-H tumor, Copenhagen rats, 30 minutes post-ICG injection (vs two minutes)) | perfusion of the agent into the tumor (DSL 6A tumors; DSL 6/A (pancreatic) tumor line, CCD camera) | dye intensity in the tumor (DSL 6A tumors; DSL 6A tumor, male Lewis rats, 30 minutes post-ICG injection (vs two minutes), tail vein bolus 0.5 ml aqueous solution) | fluorescence signal in blood after injection (rise) [3] | fluorescence signal in blood over time (clearance) [3] | localization of dye in the tumor ([1]; CA20948 Lewis rat model, 45 minutes post injection) | tumor visualization ([1]; CA20948 Lewis rat model, 27 hours post injection) | time course of uptake into the tumor ([1]; CA20948 tumor, 500 μl of 1.0 mg/mL in 25% dimethylsulfoxide in water) | persistence of dye fluorescence in the tumor ([1]; CA20948 tumor, post-injection) | uptake in adrenals [4, 6] | uptake in heart [4, 6] | uptake in liver [4, 6] | uptake in pancreas [4, 6] | uptake in spleen [4, 6] | uptake in muscle [4, 7] | uptake in tumor tissue [4, 7] |
| --- | --- | --- | --- | --- | --- | --- | --- | --- | --- | --- | --- | --- | --- | --- | --- | --- | --- | --- | --- | --- |
| CC1(C)C(/C=C/C=C/C=C/C=C2\N(CCCCS(=O)(=O)O)c3ccc4ccccc4c3C2(C)C)=[N+](CCCCS(=O)(=O)[O-])c2ccc3ccccc3c21 [ICG, indocyanine green] | only a slight but transient perfusion that was absent after only 30 minutes post injection | considerably diminished and almost absent | mostly cleared | slow perfusion of the agent over time into the tumor | considerably diminished | slow perfusion of the agent over time into the tumor | considerably diminished |  |  |  |  |  |  |  |  |  |  |  |  |  |
| C[C@@H](O)[C@H](NC(=O)[C@@H]1CSSC[C@H](NC(=O)[C@@H](Cc2ccccc2)NC(=O)CCN2C(=CC=CC=CC=CC3=[N+](CCC(=O)N[C@H](Cc4ccccc4)C(=O)N[C@H]4CSSC[C@@H](C(=O)N[C@H](C(=O)O)[C@@H](C)O)NC(=O)[C@H]([C@@H](C)O)NC(=O)[C@H](CCCCN)NC(=O)[C@@H](Cc5c[nH]c6ccccc56)NC(=O)[C@H](Cc5ccc(O)cc5)NC4=O)c4ccc5ccccc5c4C3(C)C)C(C)(C)c3c2ccc2ccccc32)C(=O)N[C@@H](Cc2ccc(O)cc2)C(=O)N[C@H](Cc2c[nH]c3ccccc23)C(=O)N[C@@H](CCCCN)C(=O)N[C@@H]([C@@H](C)O)C(=O)N1)C(=O)O [Cytate 2, bisOctreotate-Bismethylcarboxymethylindocyanine dye] |  |  |  |  |  |  |  | rapidly increased to a peak value | decayed as a function of time |  |  |  |  |  |  |  |  |  |  |  |
| C[C@@H](O)[C@H](NC(=O)[C@@H]1CSSC[C@H](NC(=O)[C@@H](Cc2ccccc2)NC(=O)CCN2C(=CC=CC=CC=CC3=[N+](CCC(=O)O)c4ccc5ccccc5c4C3(C)C)C(C)(C)c3c2ccc2ccccc32)C(=O)N[C@@H](Cc2ccc(O)cc2)C(=O)N[C@H](Cc2c[nH]c3ccccc23)C(=O)N[C@@H](CCCCN)C(=O)N[C@@H]([C@@H](C)O)C(=O)N1)C(=O)O [Cytate 1, monoOctreotate-Bismethylcarboxymethylindocyanine dye] |  |  | still quite intense |  |  |  |  | rapidly increased to a peak value | decayed as a function of time | localization of this dye was observed in the tumor | easily observed | seen at two minutes but was not maximal until about five minutes | remained intense in the tumor for several hours | high uptake | significantly lower uptake | significantly lower uptake | high uptake | significantly lower uptake | significantly lower uptake | high uptake |
